Experimental data published in publication PMC4967449, “The role of acid-base imbalance in statin-induced myotoxicity” (Translational Research, 2016).
Where a name gives a salt, the structure may show the parent alone. Read-outs that look alike come from different tables or passages of the source.

Assays:
[1] = test system: undifferentiated C2C12 cells; assay: Cellular uptake of statins by undifferentiated C2C12 cells in medium of altered pH; type: cell-based, mouse; details: 1 μmol/L, LC MS/MS
Description: (§1) Samples temperature was kept at 4°C, and column temperature was set at 40°C.

[2] = test system: differentiated C2C12 cells; assay: Cellular uptake of statins by differentiated C2C12 cells in medium of altered pH; type: cell-based, mouse; details: for intracellular levels of pravastatin: 1 μmol/L, LC MS/MS
Description: as §1

[3] = Interconversion / hydrolysis of the lactone form of statins in human plasma of modified pH; type: in vitro ADME; details: for proportion of lactone converted to the hydroxy acid form: 50 μmol/L, 24 hours at 37°C; for half-life at 50 μmol/L: 37°C
Description: (§2) The interconversion of the lactone and hydroxy acid forms of simvastatin and pravastatin was investigated by incubating tested compounds with human plasma, PBS, and DMEM culture medium of defined pH values at 37°C for a predetermined period of time. […] Human plasma and PBS samples were incubated in C25 classic incubator shaker (New Brunswick Scientific). For DMEM samples, CO2 supply was maintained at 5% throughout experiment in a tissue culture incubator. The pH of different matrices was adjusted to simulate physiological pH, acidosis, and alkalosis as described previously. After incubation, the interconversion reaction was stopped at predetermined time points by adding 50 μL of ice-cold ammonium acetate buffer (100 mmol/L, pH 4.5) to 100 μL of tested samples.[14] Six replicates were tested at each pH level, and the concentrations of parent and corresponding forms were measured by fully validated HPLC analytical methods.
(§3) Fully validated HPLC-UV methods were used to determine the concentrations of the lactone and the corresponding hydroxy acid forms of simvastatin and pravastatin after interconversion studies in human plasma, PBS, and DMEM culture medium of different pH. Samples for HPLC analysis were prepared by protein precipitation followed by liquid-liquid extraction. A 100 μL of human plasma or DMEM samples were pipetted into 1.5 mL Eppendorf tubes, and 50 μL of ammonium acetate buffer (100 mmol/L, pH 4.5) along with 10 μL of internal standard solution (4,4-dichlorodiphenyltrichloroethane [DDT] or griseofulvin 100 μg/mL for simvastatin and pravastatin containing samples, respectively) was added, and samples were vortex mixed for 30 seconds. Proteins were precipitated by the addition of 300 μL of chilled ACN, and samples were vortex mixed for 1 minute and then centrifuged at 900g for 10 minutes at 4°C. After centrifugation, the ACN layer was transferred into new glass test tubes, and 3 mL of methyl tert-butyl ether were added to each sample, vortex mixed for 10 minutes, and centrifuged at 1,615g for 10 minutes at 4°C. Finally, the upper organic layers were separated using glass Pasteur pipette, transferred into new glass tubes, and the contents of the tubes were evaporated to dryness using Techne Sample Concentrator (Bibby Scientific Ltd, UK). The dry residues were reconstituted with 100 μL of the mobile phase, vortex mixed, and placed into appropriate HPLC vials. Samples from PBS were extracted in the same way with one exception that the protein precipitation step was skipped.
(§4) HPLC analysis was performed using Waters Alliance 2965 separation module equipped with Waters 996 Photodiode Array Detector and integrated autosampler. System control and data processing were performed using Empower software. Chromatographic separation was achieved by ACE Excel Super C18 column (100 × 3 mm, 3 μm) under isocratic conditions with mobile phase consisting of ACN: 5 mmol/L ammonium acetate buffer, pH 4.5 (73:27 and 55:45, v/v for simvastatin and pravastatin samples, respectively). The flow rate was set at 0.4 mL/min for simvastatin and 0.3 mL/min for pravastatin samples. Samples temperature was kept at 4°C, and column temperature was set at 40°C.

[4] = Hydrolysis of the lactone form of statins in DMEM culture medium of modified pH; type: physicochemical; details: 37°C
Description: (§5) The pH of DMEM culture medium was adjusted to the target values (6.8–7.8) by adding an appropriate volume of either 1.0 N HCl or NaOH to a medium containing 20 mmol/L 4-2-hydroxyethyl-1-piperazineethanesulfonic acid (HEPES) buffer. The pH was measured at incubation temperature (37°C) by Mettler Toledo T50 pH titrator. […] After equilibration, minor adjustment in pH was occasionally required to reach the desired final pH.[35] Maintaining medium under constant CO2 environment of 5% stabilizes the pH through CO2-HCO3^− equilibrium.[36] The pH of phosphate buffer saline (PBS) was adjusted to the target values (6.8–7.8) in the same way without the need for equilibration.
as §2
Fully validated HPLC-UV methods were used to determine the concentrations of the lactone and the corresponding hydroxy acid forms of simvastatin and pravastatin after interconversion studies in human plasma, PBS, and DMEM culture medium of different pH. Samples for HPLC analysis were prepared by protein precipitation followed by liquid-liquid extraction. A 100 μL of human plasma or DMEM samples were pipetted into 1.5 mL Eppendorf tubes, and 50 μL of ammonium acetate buffer (100 mmol/L, pH 4.5) along with 10 μL of internal standard solution (4,4-dichlorodiphenyltrichloroethane [DDT] or griseofulvin 100 μg/mL for simvastatin and pravastatin containing samples, respectively) was added, and samples were vortex mixed for 30 seconds. Proteins were precipitated by the addition of 300 μL of chilled ACN, and samples were vortex mixed for 1 minute and then centrifuged at 900g for 10 minutes at 4°C. […]
HPLC analysis was performed using Waters Alliance 2965 separation module equipped with Waters 996 Photodiode Array Detector and integrated autosampler. […] Chromatographic separation was monitored by photodiode array detector at 238 nm with an injection volume of 20 μL.

[5] = Hydrolysis of the lactone form of statins in phosphate buffer saline of modified pH; type: physicochemical; details: phosphate buffer saline (PBS), 37°C
Description: as §5, §2, §3
as §4, with “40°C. Chromatographic separation was monitored by photodiode array detector at 238 nm with an injection volume of 20 μL.” for “40°C.”

[6] = test system: differentiated C2C12 cells; assay: MTT cytotoxicity in differentiated C2C12 cells in medium of different pH; type: cell-based; details: Mus musculus, acidic medium (pH 6.8), 72 hours, read-out: IC50 values of statins
Description: (§6) The effect of medium pH alteration on the cytotoxicity of statins was evaluated by MTT and LDH cytotoxicity assays. Both undifferentiated and differentiated C2C12 cells were used in these studies. […] Before starting treatment, the medium was replaced by a fresh one with modified pH (6.8, 7.4, and 7.8). […] Positive control samples with 100% cell death were obtained by treating cells with 1% Triton X-100. Produced formazan crystals were dissolved in DMSO, and the absorbance was measured at 570 nm using EnVision Multilabel Plate Reader (PerkinElmer). Results were expressed as percentage of the control, and IC50 was calculated using prism 6 (GraphPad Software Inc).

[7] = test system: undifferentiated C2C12 cells; assay: MTT cytotoxicity in undifferentiated C2C12 cells in medium of different pH; type: cell-based; details: Mus musculus, 72 hours, read-out: IC50 values of statins
Description: as §6

In the case of `CC[C@H](C)C(=O)O[C@H]1C[C@H](O)C=C2C=C[C@H](C)[C@H](CC[C@@H](O)C[C@@H](O)CC(=O)O)[C@H]21` [PVA, pravastatin hydroxy acid sodium], the “intracellular levels of pravastatin” value [1] is reported as “below the limit of quantification” and the “intracellular levels of pravastatin” value [2] is reported as “below the limit of quantification”.

With `CC[C@H](C)C(=O)O[C@H]1C[C@H](O)C=C2C=C[C@H](C)[C@H](CC[C@@H]3C[C@@H](O)CC(=O)O3)[C@H]21` [PVL, pravastatin lactone] the “proportion of lactone converted to the hydroxy acid form” value ([3]; alkaline pH) was about 99%, the half-life at 50 μmol/L ([3]; pH 6.8, 50 μmol/L) was 530 ± 18.6 min and the half-life at 50 μmol/L ([3]; pH 7.0, 50 μmol/L) was 443 ± 13.2 min. The half-life at 50 μmol/L ([3]; pH 7.2, 50 μmol/L) was 397 ± 57 min, the half-life at 50 μmol/L ([3]; pH 7.4, 50 μmol/L) was 411 ± 32.4 min and the “proportion of lactone converted to the hydroxy acid form” value ([3]; physiological pH) was about 98%. The half-life at 50 μmol/L ([4]; pH 6.8, 50 μmol/L) was 1040 ± 240 min, the half-life at 50 μmol/L ([4]; pH 7.2, 50 μmol/L) was 713 ± 163 min and the half-life at 50 μmol/L ([4]; pH 7.4, 50 μmol/L) was 583 ± 85.2 min. The half-life at 50 μmol/L ([4]; pH 7.8, 50 μmol/L) was 640 ± 48.6 min, the “intracellular levels of pravastatin” value [1] was “below the limit of quantification” and the half-life at 50 μmol/L ([5]; pH 6.8, 50 μmol/L) was 1270 ± 105 min. It also gave a half-life at 50 μmol/L ([5]; pH 7.0, 50 μmol/L) of 778 ± 82.8 min, a half-life at 50 μmol/L ([5]; pH 7.2, 50 μmol/L) of 562 ± 94.2 min and a half-life at 50 μmol/L ([5]; pH 7.4, 50 μmol/L) of 413 ± 24.6 min. The half-life at 50 μmol/L ([5]; pH 7.6, 50 μmol/L) was 335 ± 29.4 min, the half-life at 50 μmol/L ([5]; pH 7.8, 50 μmol/L) was 299 ± 26.4 min and the “intracellular levels of pravastatin” value [2] was “below the limit of quantification”.

With `CCC(C)(C)C(=O)O[C@H]1C[C@@H](C)C=C2C=C[C@H](C)[C@H](CC[C@@H](O)C[C@@H](O)CC(=O)O)[C@H]21` [SVA, simvastatin hydroxy acid ammonium salt] the IC50 [6] was 65.4 ± 2.69 µM, the IC50 ([7]; acidic medium (pH 6.8)) was 2.22 ± 0.04 µM and the IC50 ([7]; alkaline medium (pH 7.8)) was 16.9 ± 0.48 µM. For the same molecule, the IC50 ([7]; neutral medium (pH 7.4)) was 4.35 ± 0.09 µM, the “increase in uptake at acidic extracellular pH” value ([2]; 1 μmol/L SVA) was “more than 2 folds” and the “reduction in uptake under alkaline pH” value ([2]; 1 μmol/L SVA) was “approximately 50%”.
